Legend:
IRAK4 = target: T1, IRAK4 (Homo sapiens, UniProt Q9NWZ3); assay: c-ponatinib pulldown LC-MS/MS; type: binding
T1 sequence (Q9NWZ3 1-460): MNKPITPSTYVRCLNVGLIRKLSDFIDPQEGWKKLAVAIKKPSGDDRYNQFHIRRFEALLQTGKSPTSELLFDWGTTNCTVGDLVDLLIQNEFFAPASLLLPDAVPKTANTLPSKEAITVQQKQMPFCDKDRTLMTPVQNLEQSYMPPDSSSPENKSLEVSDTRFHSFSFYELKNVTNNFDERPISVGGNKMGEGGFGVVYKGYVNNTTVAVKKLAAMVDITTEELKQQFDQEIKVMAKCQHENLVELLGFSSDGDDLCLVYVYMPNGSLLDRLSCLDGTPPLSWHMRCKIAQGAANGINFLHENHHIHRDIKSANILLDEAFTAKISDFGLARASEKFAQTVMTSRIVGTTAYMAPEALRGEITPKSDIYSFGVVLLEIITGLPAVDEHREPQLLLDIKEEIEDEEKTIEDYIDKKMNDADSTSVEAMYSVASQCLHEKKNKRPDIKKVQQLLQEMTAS
In short: (§1)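 Spectral counts and search-engine scores from LC-MS/MS of tryptic eluates gave drug-protein specificity P-values. Eluates came from duplicate pulldowns of 10 mg lysate on 25 nmol immobilized c-ponatinib. Competition was the ratio of median counts with versus without free compound.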

CCT4 = target: T2, CCT4 (Homo sapiens, UniProt P50991); assay: c-ponatinib pulldown LC-MS/MS; type: binding
T2 sequence (P50991 1-539): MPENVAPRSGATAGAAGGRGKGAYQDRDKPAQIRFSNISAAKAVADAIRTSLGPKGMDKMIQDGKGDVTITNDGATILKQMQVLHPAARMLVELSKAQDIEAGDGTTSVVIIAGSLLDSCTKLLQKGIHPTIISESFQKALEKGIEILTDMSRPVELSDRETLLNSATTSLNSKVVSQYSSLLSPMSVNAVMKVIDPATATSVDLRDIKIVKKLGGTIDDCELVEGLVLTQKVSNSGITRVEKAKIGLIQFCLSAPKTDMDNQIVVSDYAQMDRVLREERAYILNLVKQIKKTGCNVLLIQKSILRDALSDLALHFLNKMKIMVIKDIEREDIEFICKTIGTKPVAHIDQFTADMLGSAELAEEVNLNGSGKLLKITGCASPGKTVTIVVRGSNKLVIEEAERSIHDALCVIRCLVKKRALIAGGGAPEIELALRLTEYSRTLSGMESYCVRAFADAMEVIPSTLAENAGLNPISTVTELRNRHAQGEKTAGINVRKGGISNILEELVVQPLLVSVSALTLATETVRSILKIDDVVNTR
In short: as §1

Av. SC comp. (IRAK4; + free ponatinib): 2.5
Total SC comp. (IRAK4; + free ponatinib): 10
Av. SC (IRAK4; no competitor): 8.5
Total SC (IRAK4; no competitor): 34
Av. SC comp. (CCT4; + free ponatinib): 0
Total SC comp. (CCT4; + free ponatinib): 0
Av. SC (CCT4; no competitor): 3.5
Total SC (CCT4; no competitor): 14
Structure (SMILES): Cc1ccc(C(=O)Nc2ccc(CN3CCN(CCCN)CC3)c(C(F)(F)F)c2)cc1C#Cc1cnc2cccnn12 [c-ponatinib]

From paper PMC4669708 (Cell Death & Disease, 2015)
